Results on 3 compounds are retold here after patent US11650214B2, “Proteins of the WNT signaling pathway and uses thereof in the diagnostic and treatment of hypopigmentation disorders” (INSERM (INSTITUT NATIONAL DE LA SANTÉ ET DE LA RECHERCHE …, priority 2014, dated 2023).

Format in all cases: cell-based, human
In test [1] the test system is WNT pathway in lesional skin from vitiligo patients. Put plainly: Ex vivo culture of lesional vitiligo skin biopsies with WNT pathway activators, RT-qPCR. Conditions: 14 days, SKL2001 40 μM; for mRNA level of early melanoblast marker Brn2 / mRNA level of early melanoblast marker PAX3 / relative mRNA expression of LEF / relative mRNA expression of WNT family: CHIR99021 3 μM, LiCl 20 μM; for relative mRNA expression of LEF / relative mRNA expression of WNT family: stimulation every other day, n=9. How it is done:
Vitiligo patients (n=9) were biopsied in lesional skin area. The biopsies were stimulated in ex vivo culture during 14 days with GSK3β inhibitor: CHIR99021 (3 μM) or LiCl (20 μM) or with WNT agonist: SKL2001 (40 μM) every other day. mRNA was extracted and a RT-qPCR was performed to quantify the relative expression of LEF (A) and the pre-melanocytes markers PAX3 (B), Brn2 (C) MITF (D) and DCT (E).
Vitiligo patients (n=9) were biopsied in lesional skin area. The biopsies were stimulated in ex vivo culture during 14 days with GSK3β inhibitor: CHIR99021 (3 μM) or LiCl (20 μM) or with WNT agonist: SKL2001 (40 μM) every other day. mRNA was extracted and a RT-qPCR was performed to quantify the relative expression of WNT family
For vitiligo skin biopsies, after verification of the absence of melanocytes with Wood's lamp, two or three 6 mm biopsies composed of dermis plus epidermis were taken into lesional skin from vitiligo patients (n=9). The biopsies are rapidly put on transwell chamber of 0.4 μm (Becton Dickinson) and kept on semi liquid culture conditions in “Skin long term culture medium” (Biopredic). The skin was maintained at 37° C. in a wet 5% CO2 atmosphere.
The culture medium supplemented with Forskolin (Sigma Aldrich), LiCl (Sigma Aldrich), CHIR99021 (Calbiochem) or SKL2001 (Calbiochem) was changed […] during 14 days.
mRNA from melanocytes and keratinocytes was extracted with RNeasy kit (Qiagen). The biopsies are cut and disrupted with tissue ruptor (Qiagen) and the mRNA was extracted with RNeasy kit (Qiagen). cDNA were synthesized from 300 ng to 1 μg of mRNA with the Reverse Transcription System (Promega). Relative quantification of gene expression was measured by real time qPCR with Sybr green reagent (Life technology) on Step one system.
In order to induce the differentiation of melanocyte stem cells, they pharmacologically activated the WNT pathway in vitiligo skin cultured ex vivo as shown previously. They used two methods to activate the WNT pathway: a WNT agonist (SKL2001) and two GSK3β inhibitors: lithium chloride (LiCl) and a commercial specific inhibitor (CHIR99021). They biopsied 9 vitiligo subjects (6 mm punch) on diverse body locations ([…], 2 on trunk, 2 on leg, 1 on arm and 1 on axilla) and treated the ex vivo culture model during 14 days with a systemic stimulation every other day with the WNT activators.
They evaluated the activation of WNT pathway by the mRNA level of WNTs (TCF/LEF1 and the melanogenesis pathway by the mRNA level of MITF, DCT, PAX3 and BRn2) within the skin. Treatments with LiCl, CHIR99021 and SKL2001 induce an increase of all WNT and LEF after 14 days of stimulation (FIG. 6A and FIG. 11).
A general note: In qPCR the cycle at which signal appears reflects the starting amount.

Another test has as its system NHK (keratinocytes). Briefly: Oxidative stress (H2O2) in NHK, qPCR of LEF1 and WNT family. Conditions: 24 hours. On the procedure:
(§1) NHM (A) and NHK (B) and whole skin in ex vivo culture (C) were stimulated 24 hours with 25 to 100 μM of H2O2. After mRNA extraction, a reverse transcription was performed and the relative gene expression of LEF1 was analyzed with qPCR.
(§2) (A) NHM, (B) NHK and (C) whole skin in ex vivo culture were stimulated 24 hours with 25 to 100 μM of H2O2. After mRNA extraction, a reverse transcription was performed and the relative gene expression of WNT family was analyzed with qPCR.
(§3) NHMs and NHKs are obtained from the foreskin of phototype IV children as described previously. Briefly, epidermal cells are obtained by overnight digestion of the skin in a dispase solution (Roche) at 4° C. followed by the digestion of the epidermis in a trypsin/EDTA solution during 20 minutes at 37° C. […]
(§4) mRNA from melanocytes and keratinocytes was extracted with RNeasy kit (Qiagen). […] Relative quantification of gene expression was measured by real time qPCR with Sybr green reagent (Life technology) on Step one system.
(§5) Since the WNT pathway, implicated in melanocytes differentiation, seems to be affected in vitiligo skin, inventors tried to determine the element—known to be involved in vitiligo—responsible for this dysregulation. […] They induced an oxidative stress with H2O2 in melanocytes and keratinocytes and analyzed the expression of LEF and WNT family. […]

A further test deals with NHM (melanocytes). Briefly: Oxidative stress (H2O2) in NHM, qPCR of LEF1 and WNT family. Particulars: 24 hours. How it is done:
as §1, §2, §3, §4, §5

Test [2] deals with whole skin in ex vivo culture. Briefly: Oxidative stress (H2O2) in whole skin in ex vivo culture, qPCR of LEF1 and WNT family. Particulars: whole skin biopsies ex vivo, 24 hours, 25 to 100 μM H2O2. On the procedure: as §1, §2
Skin from abdominoplasty surgery was used to the development of the ex vivo skin culture model. The subcutaneous fat was removed and biopsies of 6 mm were done in the skin composed of dermis and epidermis.
as §4, §5

Where [3] appears, read: 25 to 100 μM H2O2, majority of WNT.

For `O=C(NCCCn1ccnc1)c1cc(-c2ccco2)on1` [SKL2001], in test [1], the “mRNA level of early melanoblast marker Brn2” value is “up-regulated”, the “mRNA level of early melanoblast marker PAX3” value was “up-regulated”, the “mRNA level of MITF” value was “increased” and the “relative mRNA expression of LEF” value is “increase”. Moreover, the “relative mRNA expression of WNT family” value in test [1] is given as “increase”.

On to `Cc1c[nH]c(-c2cnc(NCCNc3ccc(C#N)cn3)nc2-c2ccc(Cl)cc2Cl)n1` [CHIR99021], for which, in test [1], the “mRNA level of early melanoblast marker Brn2” value is reported as “up-regulated”, the “mRNA level of early melanoblast marker PAX3” value was “up-regulated”, the “relative mRNA expression of LEF” value is given as “increase” and the “relative mRNA expression of WNT family” value was “increase”.

With `OO` [H2O2], the “expression of LEF” value with NHK (keratinocytes) (25 to 100 μM H2O2) was “decreased”; in the test on NHM (melanocytes) (25 to 100 μM H2O2), “decreased”; in test [2] it was “decrease expression”. Moreover, the “expression of WNT family” value in the test with NHK (keratinocytes) (setting [3]) is “decreased”; in the test with NHM (melanocytes) (setting [3]), “decreased”; in test [2] (most of the WNT family), “decrease expression”.
